Patent US11851631B2, “Household product delivering cooling sensations” (TAKASAGO INTERNATIONAL CORPORATION, priority 2016, dated 2023)

Tests used:
human TRPM8 = biological target: T1, human TRPM8 (Homo sapiens, UniProt Q7Z2W7); assay: TRPM8 activation, Fluo-8 calcium fluorescence (FLIPR) in HEK-293 cells; format: cell-based; conditions: HEK-293 cells stably transfected with human TRPM8; for EC50: normalised to WS3 EC100
T1 construct: expressed in transfected cells; host or cells: HEK-293
Protocol: HEK-293 (Human Embryonic Kidney) cells stably transfected with human TRPM8 were grown in a culture medium of EMEM (minimum Essential Medium Eagle) with Earl's salts balanced salt solution (Lonza catalogue No BE12-125F), 5 mL of 200 mM Ultraglutamine 1 (Lonza Catalogue No BE17-605E/U1), 5 mL of 100× Penicillin/Streptomycin (Lonza Catalogue No DE17-602E) 50 mL of Fetal bovine serum (Euroclone Cat No ECS0180L) 2 mL of 100 mg/mL Genticin sulphate (G418 sulphate InvivoGen CatAnt-gn-5).
10,000 cells/well were seeded in a 384 MTP in complete medium. Then after 24 h the culture medium was manually removed. The cells were loaded with 20 μL/well of 0.5× Fluo-8 NW dye in standard Tyrode's buffer (Screen Quest™ Fluo-8 No wash Calcium assay kit supplied by AAT Bioquest catalogue No 26316) The plate was incubated for 1 h at room temperature in the dark. 10 μL/well of test compounds and controls were injected with the FLIPR^TETRA (Molecular Devices) and the emitted fluorescence signal was recorded at 520 nm for 3 min. The compound multiwall plate contained the samples at 8 different doses in quadruplicate data points. The dose response of the samples were performed starting from 100 mM concentration in 100% DMSO with a serial dilution of 1:2 and then diluted in assay buffer at the final concentration of 100 μM, 50 μM, 25 μM, 12.5 μM, 6 μM, 3 μM, 1.5 μM, and 0.7 μM.
In the compound plate was also present a dose response of the reference agonist N ethyl-p-menthane-3-carboxamide (WS3) at 8 concentrations and in duplicate. This reference control dosed as 16 wells (duplicates for each concentration) of reference agonist at EC100 correspond to the MAX signal response (100% activity). There were also 16 wells of blanks i.e. assay buffer without either a test sample or reference agonist which correspond to the MIN signal response (0% activity). MAX and MIN controls are used for data analysis (RZ′ calculation) and normalization of compound activity.
For data analysis the response value is calculated as the maximum signal of the kinetic trace after the injection minus the median of the points before injection and multiplied by the normalization factor (NF). The normalisation factor is the baseline mean of all wells in the plate divided by the baseline of a specific well. […]
The EC50 of the test samples was then calculated using a curve fitting program available within the data analysis software.

panel of 84 subjects = assay: Comparison of sensations between isopulegol and menthoxypropanediol (cool sensation in the nose); format: in vivo, human; conditions: 3% in triethyl citrate, isopulegol compared to menthoxypropanediol, ANOVA p<0.05
Protocol: A panel of 84 subjects was selected to take part in a comparative test between isopulegol (available as Coolact (registered trademark) P) and menthoxypropanediol (CAS 87061-04-9, available as Coolact (registered trademark) 10), both known for their cooling effect on skin.
The samples of isopulegol and menthoxypropanediol were prepared by dilution to 3% in Triethyl Citrate (TEC).
Panelists also had to score whether they perceived a cool sensation in the nose, on a scale of +100 (very cool) to −100 (very hot) with 0 (neutral) on the middle of the scale.

T1 sequence (Q7Z2W7 whole entry): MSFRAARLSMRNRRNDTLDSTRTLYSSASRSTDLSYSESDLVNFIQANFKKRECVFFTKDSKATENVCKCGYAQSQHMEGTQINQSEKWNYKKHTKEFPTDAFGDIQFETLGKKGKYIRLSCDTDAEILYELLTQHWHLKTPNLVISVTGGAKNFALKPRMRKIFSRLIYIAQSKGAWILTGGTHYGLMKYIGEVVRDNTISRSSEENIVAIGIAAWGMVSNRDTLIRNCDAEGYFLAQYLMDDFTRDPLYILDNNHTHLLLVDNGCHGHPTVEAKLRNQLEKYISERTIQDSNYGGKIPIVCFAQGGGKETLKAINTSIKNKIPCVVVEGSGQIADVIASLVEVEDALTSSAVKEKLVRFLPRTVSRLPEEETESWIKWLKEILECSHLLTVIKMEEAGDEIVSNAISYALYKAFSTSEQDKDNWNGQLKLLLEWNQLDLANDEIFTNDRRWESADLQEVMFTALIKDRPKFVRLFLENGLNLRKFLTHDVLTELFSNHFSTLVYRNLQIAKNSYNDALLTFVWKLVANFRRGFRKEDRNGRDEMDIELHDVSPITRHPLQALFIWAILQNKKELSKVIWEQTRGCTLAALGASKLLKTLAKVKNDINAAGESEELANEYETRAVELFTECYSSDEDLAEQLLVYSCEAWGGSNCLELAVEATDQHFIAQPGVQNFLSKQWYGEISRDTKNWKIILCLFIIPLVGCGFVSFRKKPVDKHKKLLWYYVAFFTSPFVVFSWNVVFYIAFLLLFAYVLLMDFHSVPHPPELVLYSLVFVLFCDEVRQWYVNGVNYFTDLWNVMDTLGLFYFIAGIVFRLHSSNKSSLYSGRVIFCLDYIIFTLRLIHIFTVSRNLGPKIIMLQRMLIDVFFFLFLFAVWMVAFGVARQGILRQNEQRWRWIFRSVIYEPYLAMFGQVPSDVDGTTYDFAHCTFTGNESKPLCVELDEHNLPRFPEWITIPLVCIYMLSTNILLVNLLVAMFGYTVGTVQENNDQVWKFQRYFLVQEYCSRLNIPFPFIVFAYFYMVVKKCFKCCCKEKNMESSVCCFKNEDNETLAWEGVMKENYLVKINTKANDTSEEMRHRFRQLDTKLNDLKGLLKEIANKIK

C=C(C)[C@@H]1CC[C@@H](C)C[C@H]1O (racemic) [Isopulegol, isopulegol]
TRPM8 activation (in words) (human TRPM8): activate TRPM8
cooling perception in the nose (in words) (panel of 84 subjects): improved cooling perception

CC(C)[C@@H]1CC[C@@H](C)C[C@H]1OCC(O)CO (some centres unmarked) [Menthoxypropanediol, menthoxypropanediol]
TRPM8 activation (in words) (human TRPM8): activate TRPM8
EC50 (human TRPM8): 7.7 µM

CCNC(=O)C1CC(C)CCC1C(C)C (centres unmarked) [WS3, N ethyl-p-menthane-3-carboxamide]
EC50 (human TRPM8): 6 µM
